What was measured:
human mAChRM1 [1] = biological target: T1, human mAChRM1 (Homo sapiens, UniProt P11229); assay: mAChR M1 cell-based functional assay (calcium mobilization), positive allosteric modulator activity: increase in the EC20 acetylcholine response; conditions: for Emax: PAM mode; for EC50: read-out: PAM Activity Human M1 EC50
T1 construct: host or cells: CHO-K1
T1 sequence (P11229 1-460): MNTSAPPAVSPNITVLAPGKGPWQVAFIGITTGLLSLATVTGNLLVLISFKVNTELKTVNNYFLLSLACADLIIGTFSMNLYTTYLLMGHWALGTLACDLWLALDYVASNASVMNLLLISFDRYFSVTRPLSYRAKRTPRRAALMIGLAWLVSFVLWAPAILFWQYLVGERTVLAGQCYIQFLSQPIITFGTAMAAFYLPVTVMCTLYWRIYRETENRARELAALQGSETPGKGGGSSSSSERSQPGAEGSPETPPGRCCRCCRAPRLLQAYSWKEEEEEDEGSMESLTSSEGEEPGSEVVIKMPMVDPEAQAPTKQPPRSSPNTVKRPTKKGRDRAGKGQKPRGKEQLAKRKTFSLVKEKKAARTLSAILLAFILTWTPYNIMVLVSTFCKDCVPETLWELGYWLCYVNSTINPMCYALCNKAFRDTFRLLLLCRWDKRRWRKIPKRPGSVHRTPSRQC
Description: (§1) Chinese hamster ovary (CHO-K1) cells stably expressing rat (r)M1 were purchased from the American Type Culture Collection and cultured according to their indicated protocol. CHO cells stably expressing human (h)M2, hM3, and hM5 were described previously (Levey, et al., 1991); hM1 and hM4 cDNAs were purchased from Missouri S&T cDNA Resource; rM4 cDNA was provided by T. I. Bonner (National Institutes of Health, Bethesda, MD). rM2 and rM3 were cloned from a rat brain cDNA library and sequence verified. hM1, rM2, rM3, hM4, and rM4 cDNAs were used to stably transfect CHO-K1 cells purchased from the American Type Culture Collection using Lipofectamine 2000. To make stable rM2, hM2, rM3, hM4. and rM4 cell lines for use in calcium mobilization assays, these cells also were stably transfected with a chimeric G-protein (Gqi5) (provided by B. R. Conklin, University of California, San Francisco) using Lipofectamine 2000. rM1, hM1, rM3, hM3, rM5, and hM5 cells were grown in Ham's F-12 medium containing 10% heat-inactivated fetal bovine serum (FBS), 20 mM HEPES, and 50 μg/mL G418 sulfate. rM2-Gqi5, hM2-Gqi5, and hM4-Gqi5 cells were grown in the same medium also containing 500 µg/mL Hygromycin B. Stable rM4-Gqi5 cells were grown in DMEM containing 10% heat-inactivated FBS, 20 mM HEPES, 400 μg/mL G418 sulfate, and 500 μg/mL Hygromycin B.
(§2) For high throughput measurement of agonist-evoked increases in intracellular calcium, CHO-K1 cells stably expressing muscarinic receptors were plated in growth medium lacking G418 and hygromycin at 15,000 cells/[…] in Greiner 384-well black-walled, tissue culture (TC)-treated, clear-bottom plates (VWR). Cells were incubated overnight at 37° C. and 5% CO2. The next day, cells were washed using an ELX 405 (BioTek) with four washes (80 μL) of assay buffer then aspirated to 20 μL. Next, 20 μL of 16 μM Fluo-4/acetoxymethyl ester (Invitrogen, Carlsbad, CA) prepared as a 2.3 mM stock in DMSO and mixed in a 1:1 ratio with 10% (w/v) Pluronic F-127 and diluted in assay buffer was added to the wells and the cell plates were incubated for 50 min at 37° C. and 5% CO2. Dye was removed by washing with the ELX 405 (four 80 μL washes of assay buffer) then aspirated to 20 μL. Compound master plates were formatted in an 11 point CR^c format (1:3 dilutions) in 100% DMSO with a starting concentration of 10 mM using the BRAVO liquid handler (Agilent). Test compound CRCs were then transferred to daughter plates (240 nL) using the Echo acoustic plate reformatter (Labcyte, Sunnyvale, CA) and then diluted into assay buffer ([…]) to a 2× stock using a Thermo Fisher Combi (Thermo Fisher Scientific, Waltham, MA).
(§3) Calcium flux was measured using the Functional Drug Screening System (FDSS) 6000 (Hamamatsu Corporation, Tokyo, Japan) as an increase in the fluorescent static ratio. Compounds were applied to cells (20 μL, 2×) using the automated system of the FDSS 6000 at 4 s into the 300 s protocol and the data were collected at 1 Hz. […] Agonist activity was analyzed as a concentration-dependent increase in calcium mobilization upon compound addition. Emax values for agonist activity are expressed relative to the maximum for acetylcholine. Positive allosteric modulator activity was analyzed as a concentration-dependent increase in the EC20 acetylcholine response. Antagonist activity was analyzed as a concentration-dependent decrease in the EC80 acetylcholine response. Concentration-response curves were generated using a four-parameter logistical equation in XLfit curve fitting software (IDBS, Bridgewater, NJ) for Excel (Microsoft, Redmond, WA) or Prism (GraphPad Software, Inc., San Diego, CA).
Activity (EC50 and Emax) was determined in the mAChRM1 cell-based functional assay as described above and the data are shown in Table 16. The compound numbers correspond to the compound numbers used in Table 15.

human mAChRM1 [2] = biological target: T1, human mAChRM1; assay: mAChR M1 cell-based functional assay (calcium mobilization), agonist activity upon compound addition, Emax relative to acetylcholine maximum; conditions: for Agonist Activity Human M1 EC50 / EC50: calcium mobilization upon compound addition; for Emax: relative to the maximum for acetylcholine
Description: Lack of agonist activity may be measured as weak or no increase in calcium fluorescence in mAChRM1-transfected CHO-K1 cells in the presence of the compound, compared to the response of equivalent CHO-K1 cells in the absence of the compound. Lack of mAChRM1 agonist activity may be determined as a percent response relative to acetylcholine. For example, a disclosed compound may have less than or equal to 30%, 25%, 20%, 15%, 10%, 5%, or 1% mAChRM1 agonist activity relative to acetylcholine. A disclosed compound may have substantially no mAChRM1 agonist activity. […] The absence of mAChRM1 agonist activity may contribute to the avoidance of cholinergic adverse effect liability.
as §1, §2
as §3, with “Antagonist activity was analyzed as a concentration-dependent decrease in the EC80 acetylcholine response. Concentration-response curves were generated using a four-parameter logistical equation in XLfit curve fitting software (IDBS, Bridgewater, NJ) for Excel (Microsoft, Redmond, WA) or Prism (GraphPad Software, Inc., San Diego, CA).” left out

[3] = increase in the EC20 acetylcholine response

| SMILES | Emax (human mAChRM1 [1]) [%] | EC50 (human mAChRM1 [1]; [3]) [µM] | Agonist Activity Human M1 EC50 (human mAChRM1 [2]) | EC50 (human mAChRM1 [2]) [µM] | Emax (human mAChRM1 [2]) [%] | PAM Activity Human M1 EC50 (human mAChRM1 [1]; [3]) |
| --- | --- | --- | --- | --- | --- | --- |
| Cn1cc2c(-c3cc(F)c(CN4Cc5ncccc5C4=O)c(F)c3)cc(C(C)(C)O)cc2n1 [Compound 24, 6-(2,6-Difluoro-4-(6-(2-hydroxypropan-2-yl)-2-methyl-2H-indazol-4-yl)benzyl)-6,7-dihydro-5H-pyrrolo[3,4-b]pyridin-5-one] | 81 | 1.92 | inactive |  |  |  |
| Cc1cc(-c2cc(C(C)(C)O)cc3nn(C)cc23)cc(F)c1CN1Cc2ncccc2C1=O [Compound 25, 6-(2-fluoro-4-(6-(2-hydroxypropan-2-yl)-2-methyl-2H-indazol-4-yl)-6-methylbenzyl)-6,7-dihydro-5H-pyrrolo[3,4-b]pyridin-5-one] | 76 | 2.52 | inactive |  |  |  |
| Cn1cc2c(-c3ccc(CN4Cc5ncccc5C4=O)c(F)c3)cc(C(C)(C)O)cc2n1 [Compound 26, 6-(2-fluoro-4-(6-(2-hydroxypropan-2-yl)-2-methyl-2H-indazol-4-yl)benzyl)-6,7-dihydro-5H-pyrrolo[3,4-b]pyridin-5-one] | 83 | 1.28 | inactive |  |  |  |
| Cc1cc(-c2cc(C(C)(C)O)cc3nn(C)cc23)ccc1CN1Cc2ncccc2C1=O [Compound 27, 6-(4-(6-(2-hydroxypropan-2-yl)-2-methyl-2H-indazol-4-yl)-2-methylbenzyl)-6,7-dihydro-5H-pyrrolo[3,4-b]pyridin-5-one] | 83 | 3.28 | inactive |  |  |  |
| Cn1cc(-c2cc(F)c(CN3Cc4ncccc4C3=O)c(F)c2)c(C(C)(C)O)n1 [Compound 28, 6-(2,6-difluoro-4-(3-(2-hydroxypropan-2-yl)-1-methyl-1H-pyrazol-4-yl)benzyl)-6,7-dihydro-5H-pyrrolo[3,4-b]pyridin-5-one] | 55 | ≥ 10 | inactive |  |  |  |
| Cn1cc(-c2ccc(CN3Cc4ncccc4C3=O)c(F)c2)c(C(C)(C)O)n1 [Compound 29, 6-(2-fluoro-4-(3-(2-hydroxypropan-2-yl)-1-methyl-1H-pyrazol-4-yl)benzyl)-6,7-dihydro-5H-pyrrolo[3,4-b]pyridin-5-one] | 56 | ≥ 10 | inactive |  |  |  |
| Cc1cc(-c2cn(C)nc2C(C)(C)O)cc(F)c1CN1Cc2ncccc2C1=O [Compound 30, 6-(2-fluoro-4-(3-(2-hydroxypropan-2-yl)-1-methyl-1H-pyrazol-4-yl)-6-methylbenzyl)-6,7-dihydro-5H-pyrrolo[3,4-b]pyridin-5-one] | 51 | ≥ 10 | inactive |  |  |  |
| Cc1cc(-c2cn(C)nc2C(C)(C)O)ccc1CN1Cc2ncccc2C1=O [Compound 31, 6-(4-(3-(2-hydroxypropan-2-yl)-1-methyl-1H-pyrazol-4-yl)-2-methylbenzyl)-6,7-dihydro-5H-pyrrolo[3,4-b]pyridin-5-one] | 47 | ≥ 10 | inactive |  |  |  |
| Cn1cc(-c2ccc(CN3Cc4ncccc4C3=O)cc2)c(C(C)(C)O)n1 [Compound 32, 6-(4-(3-(2-hydroxypropan-2-yl)-1-methyl-1H-pyrazol-4-yl)benzyl)-6,7-dihydro-5H-pyrrolo[3,4-b]pyridin-5-one] | 48 | ≥ 10 | inactive |  |  |  |
| Cn1cc2cc(-c3cc(F)c(CN4Cc5ncccc5C4=O)c(F)c3)cc(C(C)(C)O)c2n1 [Compound 33, 6-(2,6-difluoro-4-(7-(2-hydroxypropan-2-yl)-2-methyl-2H-indazol-5-yl)benzyl)-6,7-dihydro-5H-pyrrolo[3,4-b]pyridin-5-one] | 66 | 0.297 |  | ≥ 10 | 21 |  |
| Cn1cc2cc(-c3ccc(CN4Cc5ncccc5C4=O)c(F)c3)cc(C(C)(C)O)c2n1 [Compound 34, 6-(2-fluoro-4-(7-(2-hydroxypropan-2-yl)-2-methyl-2H-indazol-5-yl)benzyl)-6,7-dihydro-5H-pyrrolo[3,4-b]pyridin-5-one] | 65 | 0.326 |  | ≥ 10 | 17 |  |
| Cc1cc(-c2cc(C(C)(C)O)c3nn(C)cc3c2)ccc1CN1Cc2ncccc2C1=O [Compound 35, 6-(4-(7-(2-hydroxypropan-2-yl)-2-methyl-2H-indazol-5-yl)-2-methylbenzyl)-6,7-dihydro-5H-pyrrolo[3,4-b]pyridin-5-one] | 68 | 0.958 | inactive |  |  |  |
| Cn1cc2cc(-c3ccc(CN4Cc5ncccc5C4=O)cc3)cc(C(C)(C)O)c2n1 [Compound 36, 6-(4-(7-(2-hydroxypropan-2-yl)-2-methyl-2H-indazol-5-yl)benzyl)-6,7-dihydro-5H-pyrrolo[3,4-b]pyridin-5-one] | 67 | 0.962 | inactive |  |  |  |
| CC(C)(O)c1ccc(-c2cc(F)c(CN3Cc4ncccc4C3=O)c(F)c2)c2ncccc12 [Compound 37, 6-(2,6-difluoro-4-(5-(2-hydroxypropan-2-yl)quinolin-8-yl)benzyl)-6,7-dihydro-5H-pyrrolo[3,4-b]pyridin-5-one] |  |  | inactive |  |  | inactive |
| CC(C)(O)c1ccc(-c2cc(F)c(CN3Cc4ncccc4C3=O)c(F)c2)c2cccnc12 [Compound 38, 6-(2,6-difluoro-4-(8-(2-hydroxypropan-2-yl)quinolin-5-yl)benzyl)-6,7-dihydro-5H-pyrrolo[3,4-b]pyridin-5-one] | 59 | 4.31 | inactive |  |  |  |

From patent US20260138978A1, “POSITIVE ALLOSTERIC MODULATORS OF THE MUSCARINIC ACETYLCHOLINE RECEPTOR M1” (Vanderbilt University, priority 2022, published 2026)
